Here are results for 17 molecules from ChEMBL document CHEMBL4024719, “Recent progress in the identification of selective butyrylcholinesterase inhibitors for Alzheimer's disease” (Eur J Med Chem, 2017).

Series [1] is described as follows: Selectivity ratio of IC50 for electric eel AChE to IC50 for equine serum BChE.
In series [2] the target is Amyloid-beta precursor protein (Homo sapiens) (UniProt P05067). Briefly: Inhibition of HFIP-pretreated amyloid beta (1 to 42) (unknown origin) self-induced aggregation at 50 uM after 24 hrs by thioflavin-T fluorescence assay relative to control.
A short description of series [3]: Cytotoxicity against human T67 cells assessed as cell viability at 10 uM after 24 hrs by resazurin dye based spectrofluorimetric method relative to control. The note with it: read-out: Activity. On the technique in general: Resazurin is reduced to fluorescent resorufin, in cell work by metabolically active cells.
The target of series [4] is T1, Cholinesterase (Homo sapiens, UniProt P06276). Kind of series: Inhibition of human serum BuChE using butyrylthiocholine iodide as substrate pretreated for 20 mins followed by substrate addition by DTNB reagent based spectrophotometric method.
A short description of series [5]: Cytotoxicity against human T67 cells assessed as cell viability at 50 uM after 24 hrs by resazurin dye based spectrofluorimetric method relative to control. The note with it: read-out: Activity.
Series [6] addresses T1, Cholinesterase. Briefly: Inhibition of human BuChE.
Series [7] deals with T1, Cholinesterase. Kind of series: Inhibition of BuChE (unknown origin).
The target of series [8] is Acetylcholinesterase (Homo sapiens, UniProt P22303). Kind of series: Inhibition of human […] AChE using acetyl-(beta-methyl)thiocholine as substrate pretreated for 30 mins followed by substrate addition after 25 mins by spectrophotometric method.
In series [9] the target is T1, Cholinesterase. Briefly: Inhibition of human […] BuChE using s-butyrylthiocholine as substrate pretreated for 30 mins followed by substrate addition after 25 mins by spectrophotometric method.
Series [10] addresses T2, Cholinesterase (Equus caballus, UniProt P81908). Kind of series: Inhibition of equine serum BChE using butyrylthiocholine iodide as substrate measured at 12 secs interval for 10 mins by Ellman's method.
Series [11] has as its target T3, Acetylcholinesterase (Electrophorus electricus, UniProt O42275). Kind of series: Inhibition of electric eel AChE using acetylthiocholine iodide as substrate measured at 12 secs interval for 10 mins by Ellman's method. For orientation: In Ellman's method for cholinesterases, released thiocholine reacts with DTNB.
Series [12] concerns the target T1, Cholinesterase. Kind of series: Inhibition of human plasma BuChE using butyrylthiocholine iodine as substrate pretreated for 10 mins followed by substrate addition measured for 5 mins by Ellman's method.
In series [13] the target is Amyloid-beta precursor protein (Homo sapiens) (UniProt P05067). Briefly: Inhibition of amyloid beta (1 to 42) (unknown origin) self-aggregation at 25 uM incubated for 30 mins measured every 5 mins for 14 hrs by thioflavin T fluorescence assay relative to control.
The species named for series [14] is Homo sapiens. Kind of series: Selectivity ratio of IC50 for human erythrocytes AChE to IC50 for human serum BuChE.
Series [15] in a line: Cytotoxicity against human SH-SY5Y cells assessed as cell viability at 25 uM after 24 hrs by MTT assay relative to control. In kind it is cell-based. The note with it: read-out: Activity.
The target of series [16] is T2, Cholinesterase. Briefly: Inhibition of equine serum BuChE using s-butyrylthiocholine iodide as substrate pretreated for 6 mins followed by substrate addition measured at 60 secs interval for 180 secs by Ellman's method.
In series [17] the target is T3, Acetylcholinesterase. Kind of series: Inhibition of electric eel AChE using acetylthiocholine iodide as substrate pretreated for 6 mins followed by substrate measured at 60 secs interval for 180 secs by Ellman's method.
The target of series [18] is Acetylcholinesterase (Electrophorus electricus) (UniProt O42275). Briefly: Inhibition of electric eel AChE-induced human amyloid beta (1 to 40 residues) at 100 uM by thiofalvin-T fluorescence assay relative to control.
In series [19] the target is T2, Cholinesterase. Kind of series: Inhibition of equine serum BChE using butyrylthiocholine iodide as substrate.
The target in series [20] is T4, Acetylcholinesterase (Bos taurus, UniProt P23795).
T4 sequence (P23795 whole entry): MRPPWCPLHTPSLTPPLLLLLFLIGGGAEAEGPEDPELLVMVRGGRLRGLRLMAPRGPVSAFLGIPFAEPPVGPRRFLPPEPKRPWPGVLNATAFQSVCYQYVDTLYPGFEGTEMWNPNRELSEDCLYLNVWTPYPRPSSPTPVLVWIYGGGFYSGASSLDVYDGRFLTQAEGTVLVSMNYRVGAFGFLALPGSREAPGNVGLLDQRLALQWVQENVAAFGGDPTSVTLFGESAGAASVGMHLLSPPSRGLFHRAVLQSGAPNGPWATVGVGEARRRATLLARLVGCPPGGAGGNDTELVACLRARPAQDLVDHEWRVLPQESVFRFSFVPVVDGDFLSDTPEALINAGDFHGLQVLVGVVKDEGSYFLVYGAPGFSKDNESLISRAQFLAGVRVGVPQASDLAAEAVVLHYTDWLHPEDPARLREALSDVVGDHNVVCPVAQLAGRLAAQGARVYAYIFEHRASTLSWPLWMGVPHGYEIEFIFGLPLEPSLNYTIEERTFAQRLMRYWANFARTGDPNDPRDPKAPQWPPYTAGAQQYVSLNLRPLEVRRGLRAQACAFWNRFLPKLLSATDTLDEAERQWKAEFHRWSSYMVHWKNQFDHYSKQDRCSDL
Kind of series: Inhibition of fetal bovine serum AChE using acetylthiocholine iodide as substrate.

The test system of series [21] is Rattus norvegicus. Briefly: In-vivo inhibition of BuChE in Harlan-Wistar rat brain assessed as increase in acetylcholine level at 1.25 mg/kg, ip by microdialysis method relative to control. In kind it is functional.
Series [22] deals with Rattus norvegicus. Kind of series: In-vivo inhibition of BuChE in Harlan-Wistar rat brain assessed as increase in acetylcholine level at 2.5 mg/kg, ip by microdialysis method relative to control. The class given is functional.
Series [23] addresses T2, Cholinesterase. Briefly: Inhibition of equine serum BuChE using butyrylthiocholine iodide as substrate pretreated for 10 mins followed by substrate addition by DTNB reagent based spectrophotometric method.

T1 sequence (P06276 whole entry): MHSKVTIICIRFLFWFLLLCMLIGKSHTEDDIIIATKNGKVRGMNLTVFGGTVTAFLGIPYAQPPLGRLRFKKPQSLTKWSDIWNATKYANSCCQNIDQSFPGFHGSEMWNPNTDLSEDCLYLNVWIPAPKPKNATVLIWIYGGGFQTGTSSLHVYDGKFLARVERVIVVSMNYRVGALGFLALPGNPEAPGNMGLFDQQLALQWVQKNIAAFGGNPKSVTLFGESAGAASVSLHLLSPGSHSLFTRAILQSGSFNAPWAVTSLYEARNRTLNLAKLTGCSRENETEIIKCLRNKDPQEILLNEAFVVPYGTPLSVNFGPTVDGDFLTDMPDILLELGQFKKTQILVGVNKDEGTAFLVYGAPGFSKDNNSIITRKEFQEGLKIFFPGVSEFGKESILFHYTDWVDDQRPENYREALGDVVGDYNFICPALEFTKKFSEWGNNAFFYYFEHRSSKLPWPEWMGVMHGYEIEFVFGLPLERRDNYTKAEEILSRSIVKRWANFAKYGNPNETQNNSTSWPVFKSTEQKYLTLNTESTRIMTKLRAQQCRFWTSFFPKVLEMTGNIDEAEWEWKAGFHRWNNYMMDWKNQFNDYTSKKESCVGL
T2 sequence (P81908 whole entry): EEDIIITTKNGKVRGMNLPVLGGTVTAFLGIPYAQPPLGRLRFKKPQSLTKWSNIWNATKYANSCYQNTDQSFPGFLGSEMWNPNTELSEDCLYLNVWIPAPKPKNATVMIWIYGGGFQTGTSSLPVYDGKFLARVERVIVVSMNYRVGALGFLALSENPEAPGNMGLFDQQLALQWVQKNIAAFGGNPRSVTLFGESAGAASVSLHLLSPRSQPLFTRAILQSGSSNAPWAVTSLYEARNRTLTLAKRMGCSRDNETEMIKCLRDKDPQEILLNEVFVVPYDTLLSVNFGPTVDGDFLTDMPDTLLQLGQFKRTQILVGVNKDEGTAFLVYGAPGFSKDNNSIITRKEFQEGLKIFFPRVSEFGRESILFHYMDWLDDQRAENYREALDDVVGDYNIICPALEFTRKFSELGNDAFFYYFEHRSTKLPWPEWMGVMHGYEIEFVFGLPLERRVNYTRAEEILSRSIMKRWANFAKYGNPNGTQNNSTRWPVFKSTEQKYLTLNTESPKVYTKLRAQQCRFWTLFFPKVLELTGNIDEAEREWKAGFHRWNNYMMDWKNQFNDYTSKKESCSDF
T3 sequence (O42275 whole entry): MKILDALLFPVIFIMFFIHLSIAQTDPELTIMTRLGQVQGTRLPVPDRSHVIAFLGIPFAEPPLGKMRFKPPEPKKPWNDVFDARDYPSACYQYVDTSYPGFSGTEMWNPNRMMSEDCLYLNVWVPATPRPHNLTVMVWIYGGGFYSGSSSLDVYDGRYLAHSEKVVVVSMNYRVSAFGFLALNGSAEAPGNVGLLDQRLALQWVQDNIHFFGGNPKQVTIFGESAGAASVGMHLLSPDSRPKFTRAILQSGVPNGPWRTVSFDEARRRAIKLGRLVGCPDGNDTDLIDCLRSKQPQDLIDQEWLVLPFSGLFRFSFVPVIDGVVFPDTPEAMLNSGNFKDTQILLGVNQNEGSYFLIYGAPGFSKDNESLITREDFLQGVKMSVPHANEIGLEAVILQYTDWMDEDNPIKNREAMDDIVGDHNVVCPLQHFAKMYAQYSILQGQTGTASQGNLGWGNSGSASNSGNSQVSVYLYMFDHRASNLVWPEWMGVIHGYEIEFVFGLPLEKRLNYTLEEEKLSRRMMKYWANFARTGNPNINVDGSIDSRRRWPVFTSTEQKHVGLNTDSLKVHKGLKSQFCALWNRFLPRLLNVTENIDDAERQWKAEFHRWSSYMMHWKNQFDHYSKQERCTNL
Amyloid-beta precursor protein (Homo sapiens), sequence (P05067 whole entry): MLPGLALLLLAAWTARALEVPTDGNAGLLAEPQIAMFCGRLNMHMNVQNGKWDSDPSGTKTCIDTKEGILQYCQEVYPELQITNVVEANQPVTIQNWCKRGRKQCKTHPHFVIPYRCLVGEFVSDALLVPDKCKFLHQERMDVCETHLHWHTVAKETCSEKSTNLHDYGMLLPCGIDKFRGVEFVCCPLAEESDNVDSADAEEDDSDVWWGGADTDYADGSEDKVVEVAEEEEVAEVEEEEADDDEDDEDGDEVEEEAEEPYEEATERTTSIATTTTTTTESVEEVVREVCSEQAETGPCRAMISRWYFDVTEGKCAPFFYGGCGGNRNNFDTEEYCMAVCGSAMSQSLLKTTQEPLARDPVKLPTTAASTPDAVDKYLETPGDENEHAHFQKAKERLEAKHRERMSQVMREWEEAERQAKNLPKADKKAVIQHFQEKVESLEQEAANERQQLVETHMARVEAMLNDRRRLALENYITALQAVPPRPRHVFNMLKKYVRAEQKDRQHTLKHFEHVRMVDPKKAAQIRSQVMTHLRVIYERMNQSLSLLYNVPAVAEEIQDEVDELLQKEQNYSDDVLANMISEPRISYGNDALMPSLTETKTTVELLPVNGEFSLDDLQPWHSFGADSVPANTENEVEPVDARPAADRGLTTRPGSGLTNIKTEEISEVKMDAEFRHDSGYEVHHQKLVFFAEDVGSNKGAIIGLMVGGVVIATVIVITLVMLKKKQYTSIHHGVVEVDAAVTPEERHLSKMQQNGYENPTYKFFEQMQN
Acetylcholinesterase (Homo sapiens, UniProt P22303), sequence (P22303 whole entry): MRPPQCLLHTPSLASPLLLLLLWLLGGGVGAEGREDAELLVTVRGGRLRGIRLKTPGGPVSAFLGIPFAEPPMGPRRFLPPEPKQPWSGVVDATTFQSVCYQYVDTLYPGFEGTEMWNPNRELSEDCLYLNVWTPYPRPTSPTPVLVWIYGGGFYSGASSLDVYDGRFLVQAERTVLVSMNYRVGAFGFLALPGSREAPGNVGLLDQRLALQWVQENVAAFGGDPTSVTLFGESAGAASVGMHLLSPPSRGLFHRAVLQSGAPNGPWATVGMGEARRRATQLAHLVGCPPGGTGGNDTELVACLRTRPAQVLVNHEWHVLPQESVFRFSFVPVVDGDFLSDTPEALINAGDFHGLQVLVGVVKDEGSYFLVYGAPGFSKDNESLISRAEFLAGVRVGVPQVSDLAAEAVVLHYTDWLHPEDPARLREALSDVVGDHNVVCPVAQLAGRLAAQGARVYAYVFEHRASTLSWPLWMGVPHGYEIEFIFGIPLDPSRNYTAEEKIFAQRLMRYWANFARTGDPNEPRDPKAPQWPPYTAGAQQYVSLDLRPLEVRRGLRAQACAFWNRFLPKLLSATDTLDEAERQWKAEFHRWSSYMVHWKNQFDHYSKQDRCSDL
Acetylcholinesterase (Electrophorus electricus), sequence (O42275 24-633 limits assumed): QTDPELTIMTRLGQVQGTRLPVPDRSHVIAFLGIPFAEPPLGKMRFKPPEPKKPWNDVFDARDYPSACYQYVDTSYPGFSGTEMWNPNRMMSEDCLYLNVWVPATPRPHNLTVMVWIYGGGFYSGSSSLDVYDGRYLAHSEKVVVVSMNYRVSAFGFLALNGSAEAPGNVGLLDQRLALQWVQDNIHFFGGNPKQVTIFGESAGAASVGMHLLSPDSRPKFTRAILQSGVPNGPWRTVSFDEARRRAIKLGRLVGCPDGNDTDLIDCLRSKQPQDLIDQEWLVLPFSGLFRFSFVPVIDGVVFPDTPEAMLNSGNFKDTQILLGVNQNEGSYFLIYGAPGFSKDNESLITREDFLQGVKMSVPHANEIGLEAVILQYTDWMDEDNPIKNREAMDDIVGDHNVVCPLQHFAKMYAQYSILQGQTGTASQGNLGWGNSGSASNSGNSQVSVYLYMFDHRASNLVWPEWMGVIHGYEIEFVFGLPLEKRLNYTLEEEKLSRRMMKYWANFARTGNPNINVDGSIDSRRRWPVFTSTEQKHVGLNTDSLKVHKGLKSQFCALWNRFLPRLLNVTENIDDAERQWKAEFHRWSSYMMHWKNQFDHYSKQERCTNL

Consider `CC(C(=O)NCCCCCCCCNc1c2c(nc3ccccc13)CCCC2)c1ccc(-c2ccccc2)c(F)c1` (stereo not drawn), for which the Ratio IC50 in [1] was 16.4.
Regarding `COc1ccccc1CN1CCN(Cc2ccc3cccnc3c2O)CC1`, the inhibition (commonly the share of the control response that was lost under treatment) in series [2] amounted to 44.2%. Further, the viability at 24 h, 10 µM in [3] is > 90%. Also, the IC50 (commonly the concentration that inhibits the measured activity by half) in series [4] amounted to 5.71 µM. Moreover, the viability at 24 h, 50 µM in [5] was 81%.
Consider `COc1ccc(Cn2cc(CNc3c4c(nc5ccccc35)CCCC4)nn2)cc1`, for which it took 0.055 µM to reach half-maximal inhibition in series [6] (IC50).
In turn, `Oc1ccc(-c2cnc3ccccc3n2)cc1` registered a half-inhibitory concentration (IC50) in [7] of 7.7 µM.
On to `CC(C)c1ccc(NC(=O)Oc2ccc3c(c2)[C@]2(C)CCC(C)[C@@H]2C3C)cc1` (stereo partly drawn), for which the 50% inhibitory concentration (IC50) in series [8] came to 0.76 µM; in [9] it was 0.05 µM.
Turning to `Oc1ccccc1/C=C/c1cc(O)c(F)c(O)c1`, the values for the IC50 in series [10] and in [11] were 10 µM and 960 µM, respectively. The Ratio IC50 in series [1] is 96.
For the molecule `COc1ccc(N[C@@H]2CCC[C@@H](OC(=O)N(C)C)C2)cc1`, in series [12], the IC50 came out at 110 µM.
Turning to `COc1ccc(N[C@H]2CCC[C@@H](OC(=O)N(C)C)C2)cc1`, the IC50 in series [12] was determined as 110 µM.
For `COc1ccc(CNc2c3c(nc4ccccc24)CCCC3)cc1OC`, the inhibition in series [13] turned out to be 40%. Also, the Ratio IC50 in series [14] stood at 110. Moreover, in series [15], the viability at 24 h, 25 µM stood at 58.9%.
Regarding `O=C(NCCCCCCNc1c2c(nc3ccccc13)CCCCC2)c1cc(O)c2c(c1)C(=O)c1cccc(O)c1C2=O`, the IC50 in series [16] is 0.011 µM; in series [17], 0.13 µM. Besides, the Ratio IC50 in [1] worked out at 11. In [18], this molecule yielded an inhibition of 64.8%.
In the case of `c1ccc2c(NCCCCCCCSc3c4c(nc5ccccc35)CCCC4)c3c(nc2c1)CCCC3`, the IC50 was 0.035 µM in series [19] and 0.34 µM in [20].
`c1ccc2c(SCCCCCCCSc3c4c(nc5ccccc35)CCCC4)c3c(nc2c1)CCCC3`: the IC50 in [19] was 0.38 µM; in series [20], > 10 µM.
For the molecule `c1ccc(CNc2c3c(nc4ccccc24)CCCC3)nc1`, in series [14], the Ratio IC50 was 957.
On to `CC(C)c1ccc(NC(=O)Oc2ccc3c(c2)[C@]2(C)CCN(CCc4ccccc4)[C@@H]2N3C)cc1`, for which the inhibition in vivo (as a rule, the change of the read-out against control, counted positive when it falls) at 1.25 mg/kg in series [21] came out at 180%. In addition, the inhibition in vivo at 2.5 mg/kg in series [22] was determined as 290%.
Turning to `CC(=O)N(CCCNc1c2c(nc3ccccc13)CCCC2)CCNc1c2c(nc3ccccc13)CCCC2`, the IC50 is 0.002 µM in series [19] and 1.5 µM in [20].
For `CCN1CCc2c(c3cc(F)ccc3n2CCC(=O)N2c3ccccc3Sc3ccccc32)C1`, the IC50 in [23] stood at 0.39 µM.
Regarding `Oc1ccc(/C=C/c2cc(O)cc(O)c2)cc1` [RESVERATROL], the IC50 in series [10] was 400 µM; in series [11], > 1000 µM.
